Assay results from US11649255B2, “Indazoles as hematopoietic progenitor kinase 1 (HPK1) inhibitors and methods using same” (1st Biotherapeutics, Inc., priority 2020, dated 2023).

Biological target: recombinant human HPK1 (Homo sapiens (Human), UniProt Q92918)
Test: HPK1 kinase assay (ADP-Glo)
Type: biochemical
Settings: 25 μM ATP, MBP substrate
Description: HPK1 kinase activity was measured by Promega's ADP-Glo™ kinase assay. In this assay, 5 ng of recombinant human HPK1 (signalchem) is incubated with 5 μL of compounds (0.5% DMSO), 5 μL of MBP (0.5 μg/μl) and 5 μL of ATP (25 μM) in buffer (40 mM Tris, 7.5; 20 mM MgCl2; 0.1 mg/ml BSA; 5 μM DTT). The assay was started by incubating the reaction mixture in a 96-well plate at 30′ C for 40 minutes. After the incubation, 25 uL ADP-Glo reagent was added and the reaction was incubated at room temperature for 40-min to stop the reaction and degrade residual ATP. The ADP product was then converted to ATP by adding 50 uL per well of detection reagent. Luminescence was detected after 30-min room temperature incubation with the Molecular device I3X plate reader. The IC50 values were calculated from a series of percent inhibition values determined at a range of inhibitor concentration using software routines as implemented in the GraphPad Prism 7 software and SigmaPlot13.0.

Chain of recombinant human HPK1 (Q92918 whole entry): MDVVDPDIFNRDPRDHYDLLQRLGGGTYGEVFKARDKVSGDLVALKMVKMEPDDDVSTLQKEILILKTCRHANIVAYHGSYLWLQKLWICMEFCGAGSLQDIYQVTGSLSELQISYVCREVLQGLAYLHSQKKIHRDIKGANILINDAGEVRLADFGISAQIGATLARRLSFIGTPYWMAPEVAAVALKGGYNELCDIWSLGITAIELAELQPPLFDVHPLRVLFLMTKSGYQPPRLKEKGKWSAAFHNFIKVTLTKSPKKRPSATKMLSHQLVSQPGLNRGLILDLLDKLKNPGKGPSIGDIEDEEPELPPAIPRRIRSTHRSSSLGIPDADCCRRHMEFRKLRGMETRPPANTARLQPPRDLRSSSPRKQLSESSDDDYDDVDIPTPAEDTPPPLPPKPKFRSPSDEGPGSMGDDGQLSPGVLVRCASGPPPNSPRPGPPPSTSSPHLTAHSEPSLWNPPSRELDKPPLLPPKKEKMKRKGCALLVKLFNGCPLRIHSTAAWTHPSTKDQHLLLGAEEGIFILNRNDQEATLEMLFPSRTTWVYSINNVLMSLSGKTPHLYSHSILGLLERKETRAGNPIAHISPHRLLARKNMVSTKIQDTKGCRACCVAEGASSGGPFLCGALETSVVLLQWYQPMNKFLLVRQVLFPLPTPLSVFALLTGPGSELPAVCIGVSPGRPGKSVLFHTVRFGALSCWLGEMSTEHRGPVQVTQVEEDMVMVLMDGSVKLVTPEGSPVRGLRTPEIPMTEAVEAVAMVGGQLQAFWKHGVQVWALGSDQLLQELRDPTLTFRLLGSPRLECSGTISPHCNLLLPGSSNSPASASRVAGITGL

IC50	Structure (SMILES)
101 to 500 nM	CSc1n[nH]c2cc(F)c(C)c(-c3ccn4nc(NC(=O)[C@@H]5C[C@@H]5F)cc4c3)c12 [Example 471, (1S,2S)-2-fluoro-N-(5-(6-fluoro-5-methyl-3-(methylthio)-1H-indazol-4-yl)pyrazolo[1,5-a]pyridin-2-yl)cyclopropane-1-carboxamide]
101 to 500 nM	CC(C#N)N(C(=O)OCc1ccccc1)c1c(F)c(Cl)c(-c2ccn3nc(NC(=O)[C@@H]4C[C@@H]4F)cc3c2)c2cn[nH]c12 (stereo partly drawn) [Example 643, benzyl (5-chloro-6-fluoro-4-(2-((1S,2S)-2-fluorocyclopropane-1-carboxamido)pyrazolo[1,5-a]pyridin-5-yl)-1H-indazol-7-yl)(1-cyanoethyl)carbamate]
< 100 nM	CSc1c(F)cc2[nH]ncc2c1-c1ccn2nc(NC(=O)[C@H]3C[C@@H]3F)cc2c1 [Example 571, (1R,2S)-2-fluoro-N-(5-(6-fluoro-5-(methylthio)-1H-indazol-4-yl)pyrazolo[1,5-a]pyridin-2-yl)cyclopropane-1-carboxamide]
< 100 nM	O=C(Nc1cc2cc(-c3c(Cl)c(F)c(C4CC(O)CO4)c4[nH]ncc34)ccn2n1)[C@@H]1C[C@@H]1F (stereo partly drawn) [Example 658, (1S,2S)-N-(5-(5-chloro-6-fluoro-7-(4-hydroxytetrahydrofuran-2-yl)-1H-indazol-4-yl)pyrazolo[1,5-a]pyridin-2-yl)-2-fluorocyclopropane-1-carboxamide]
< 100 nM	CN(C)C(=O)c1ccn(-c2c(F)c(Cl)c(-c3ccn4nc(NC(=O)[C@@H]5C[C@@H]5F)cc4c3)c3cn[nH]c23)c1 [Example 649, 1-(5-chloro-6-fluoro-4-(2-((1S,2S)-2-fluorocyclopropane-1-carboxamido)pyrazolo[1,5-a]pyridin-5-yl)-1H-indazol-7-yl)-N,N-dimethyl-1H-pyrrole-3-carboxamide]
101 to 500 nM	CCc1ccc2[nH]ncc2c1-c1ccc2nc(NC(=O)C3CC3)sc2c1 [Example 28, N-(6-(5-ethyl-1H-indazol-4-yl)benzo[d]thiazol-2-yl)cyclopropanecarboxamide]
< 100 nM	COC(=O)c1c(F)c(Cl)c(-c2ccc3nc(NC(=O)[C@@H]4C[C@@H]4F)sc3c2)c2cn[nH]c12 [Example 122, methyl 5-chloro-6-fluoro-4-(2-((1S,2S)-2-fluorocyclopropane-1-carboxamido)benzo[d]thiazol-6-yl)-1H-indazole-7-carboxylate]
< 100 nM	O=C(Nc1cn2cc(-c3c(Cl)ccc4[nH]ncc34)ccc2n1)[C@@H]1C[C@@H]1F [Example 237, (1S,2S)-N-(6-(5-chloro-1H-indazol-4-yl)imidazo[1,2-a]pyridin-2-yl)-2-fluorocyclopropane-1-carboxamide]
101 to 500 nM	CC(=O)Nc1c(F)c(C)c(-c2ccc3nc(NC(=O)[C@@H]4C[C@@H]4F)cn3c2)c2cn[nH]c12 [Example 308, (1S,2S)-N-(6-(7-acetamido-6-fluoro-5-methyl-1H-indazol-4-yl)imidazo[1,2-a]pyridin-2-yl)-2-fluorocyclopropane-1-carboxamide]
< 100 nM	O=C(Nc1cn2cc(-c3c(Cl)c(F)c(Br)c4[nH]ncc34)ccc2n1)[C@@H]1C[C@@H]1F [Example 261, (1S,2S)-N-(6-(7-bromo-5-chloro-6-fluoro-1H-indazol-4-yl)imidazo[1,2-a]pyridin-2-yl)-2-fluorocyclopropane-1-carboxamide]
> 1000 nM	CN(C)c1ccc(-c2ccc3nc(NC(=O)[C@@H]4C[C@@H]4F)sc3n2)c2cn[nH]c12 [Example 216, (1S,2S)-N-(5-(7-(dimethylamino)-1H-indazol-4-yl)thiazolo[5,4-b]pyridin-2-yl)-2-fluorocyclopropane-1-carboxamide]
101 to 500 nM	O=C(Nc1nc2ccc(-c3c(CF)ccc4[nH]ncc34)cc2s1)[C@@H]1C[C@@H]1F [Example 36, (1S,2S)-2-fluoro-N-(6-(5-(fluoromethyl)-1H-indazol-4-yl)benzo[d]thiazol-2-yl)cyclopropane-1-carboxamide]
< 100 nM	CCOc1c(F)c(F)c2[nH]ncc2c1-c1ccc2nc(NC(=O)[C@@H]3C[C@@H]3F)cn2c1 [Example 357, (1S,2S)-N-(6-(5-ethoxy-6,7-difluoro-1H-indazol-4-yl)imidazo[1,2-a]pyridin-2-yl)-2-fluorocyclopropane-1-carboxamide]
< 100 nM	CNC(=O)c1c(F)c(Cl)c(-c2ccn3nc(NC(=O)[C@@H]4C[C@@H]4F)cc3c2)c2cn[nH]c12 [Example 560, 5-chloro-6-fluoro-4-(2-((1S,2S)-2-fluorocyclopropane-1-carboxamido)pyrazolo[1,5-a]pyridin-5-yl)-N-methyl-1H-indazole-7-carboxamide]
< 100 nM	CC(C)N(C)c1c(F)c(Cl)c(-c2ccn3nc(NC(=O)[C@@H]4C[C@@H]4F)cc3c2)c2cn[nH]c12 [Example 622, (1S,2S)-N-(5-(5-chloro-6-fluoro-7-(isopropyl(methyl)amino)-1H-indazol-4-yl)pyrazolo[1,5-a]pyridin-2-yl)-2-fluorocyclopropane-1-carboxamide]
> 1000 nM	C=CC(=O)Nc1cc2[nH]ncc2c(-c2ccc3nc(NC(=O)[C@@H]4C[C@@H]4F)cn3c2)c1C [Example 289, (1S,2S)-N-(6-(6-acrylamido-5-methyl-1H-indazol-4-yl)imidazo[1,2-a]pyridin-2-yl)-2-fluorocyclopropane-1-carboxamide]
< 100 nM	Nc1c(F)c(Cl)c(-c2ccn3nc(NC(=O)[C@@H]4C[C@@H]4F)cc3c2)c2cn[nH]c12 [Example 510, (1S,2S)-N-(5-(7-amino-5-chloro-6-fluoro-1H-indazol-4-yl)pyrazolo[1,5-a]pyridin-2-yl)-2-fluorocyclopropane-1-carboxamide]
< 100 nM	CC(NC(=O)C(F)F)c1c(F)c(Cl)c(-c2ccc3nc(NC(=O)[C@@H]4C[C@@H]4F)cn3c2)c2cn[nH]c12 (stereo partly drawn) [Example 441, (1S,2S)-N-(6-(5-chloro-7-(1-(2,2-difluoroacetamido)ethyl)-6-fluoro-1H-indazol-4-yl)imidazo[1,2-a]pyridin-2-yl)-2-fluorocyclopropane-1-carboxamide]
< 100 nM	CN(c1ncc(F)cn1)c1c(F)c(Cl)c(-c2ccn3nc(NC(=O)[C@@H]4C[C@@H]4F)cc3c2)c2cn[nH]c12 [Example 613, (1S,2S)-N-(5-(5-chloro-6-fluoro-7-((5-fluoropyrimidin-2-yl)(methyl)amino)-1H-indazol-4-yl)pyrazolo[1,5-a]pyridin-2-yl)-2-fluorocyclopropane-1-carboxamide]
< 100 nM	CC(C)N(C)c1c(F)c(Cl)c(-c2ccc3nc(NC(=O)[C@@H]4C[C@@H]4F)cn3c2)c2cn[nH]c12 [Example 360, (1S,2S)-N-(6-(5-chloro-6-fluoro-7-(isopropyl(methyl)amino)-1H-indazol-4-yl)imidazo[1,2-a]pyridin-2-yl)-2-fluorocyclopropane-1-carboxamide]
101 to 500 nM	Cc1c(F)c(Cl)c2[nH]nc(Cl)c2c1-c1ccc2nc(NC(=O)[C@@H]3C[C@@H]3F)sc2c1 [Example 53, (1S,2S)-N-(6-(3,7-dichloro-6-fluoro-5-methyl-1H-indazol-4-yl)benzo[d]thiazol-2-yl)-2-fluorocyclopropane-1-carboxamide]
< 100 nM	Nc1c(F)c(Cl)c(-c2ccc3nc(NC(=O)[C@@H]4C[C@@H]4F)sc3c2)c2cn[nH]c12 [Example 68, (1S,2S)-N-(6-(7-amino-5-chloro-6-fluoro-1H-indazol-4-yl)benzo[d]thiazol-2-yl)-2-fluorocyclopropane-1-carboxamide]
< 100 nM	CSc1c(F)c(C)c(-c2ccc3nc(NC(=O)[C@@H]4C[C@@H]4F)sc3c2)c2cn[nH]c12 [Example 64, (1S,2S)-2-fluoro-N-(6-(6-fluoro-5-methyl-7-(methylthio)-1H-indazol-4-yl)benzo[d]thiazol-2-yl)cyclopropane-1-carboxamide]
< 100 nM	O=C(Nc1cc2cc(-c3c(Cl)c(F)c(C(F)F)c4[nH]ncc34)ccn2n1)[C@@H]1C[C@@H]1F [Example 581, (1S,2S)-N-(5-(5-chloro-7-(difluoromethyl)-6-fluoro-1H-indazol-4-yl)pyrazolo[1,5-a]pyridin-2-yl)-2-fluorocyclopropane-1-carboxamide]
101 to 500 nM	O=C(Nc1nc2ccc(-c3c(F)ccc4[nH]ncc34)cc2s1)C1CC1 [Example 15, N-(6-(5-fluoro-1H-indazol-4-yl)benzo[d]thiazol-2-yl)cyclopropanecarboxamide]
101 to 500 nM	CN(C)c1ccc(-c2ccc3nc(NC(=O)[C@@H]4C[C@@H]4F)cn3c2)c2cn[nH]c12 [Example 352, (1S,2S)-N-(6-(7-(dimethylamino)-1H-indazol-4-yl)imidazo[1,2-a]pyridin-2-yl)-2-fluorocyclopropane-1-carboxamide]
> 1000 nM	Nc1ccc2[nH]ncc2c1-c1ccc2nc(NC(=O)C3CC3)cn2c1 [Example 225, N-(6-(5-amino-1H-indazol-4-yl)imidazo[1,2-a]pyridin-2-yl)cyclopropanecarboxamide]
101 to 500 nM	O=C(Nc1cn2cc(-c3cc(F)c(OC(F)(F)F)c4[nH]ncc34)ccc2n1)[C@@H]1C[C@@H]1F [Example 344, (1S,2S)-2-fluoro-N-(6-(6-fluoro-7-(trifluoromethoxy)-1H-indazol-4-yl)imidazo[1,2-a]pyridin-2-yl)cyclopropane-1-carboxamide]
> 1000 nM	NC(=O)c1c(F)c(Cl)c(-c2ccn3nc(NC(=O)[C@@H]4C[C@@H]4F)cc3c2)c2cn[nH]c12 [Example 576, 5-chloro-6-fluoro-4-(2-((1S,2S)-2-fluorocyclopropane-1-carboxamido)pyrazolo[1,5-a]pyridin-5-yl)-1H-indazole-7-carboxamide]
